In article PMC4673829 (Nature Communications, 2015):
Where two headings read alike, the source gives them in different places.

Columns and labels:
JARID1A PHD3 domain = target: T1, JARID1A PHD3 domain (Homo sapiens, UniProt P29375); assay: ITC binding to JARID1A PHD3 domain
T1 construct: made in house; host or cells: Escherichia coli Rosetta BL21 DE3 pLysS
T1 sequence (P29375 1607-1661 limits assumed): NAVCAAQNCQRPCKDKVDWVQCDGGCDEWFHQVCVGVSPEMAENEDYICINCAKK
Description: (§1) We use isothermal titration calorimetry (ITC) to obtain full thermodynamic descriptions for binding of H3K4me3, H3C4me3 and H3G4 peptides to five representative reader proteins that specifically recognize H3K4me3 (the PHD zinc fingers of JARID1A, BPTF, TAF3 and the tudor domains of the Royal family of SGF29 and JMJD2A) (Table 1 and Fig. 1b,c)[19][20][21][22][23]. The five reader pockets are different in the aromatic cage composition and architecture, which allows us to examine the effect of individual constitution of the aromatic cage on binding differences.
(§2) Reader proteins were prepared and purified following the previously reported procedure. Briefly, the reader domains of BPTF, JMJD2A, JARID1A, TAF3 and SGF29 were expressed in Escherichia coli Rosetta BL21 DE3 pLysS hosts, using Terrific Broth medium. The bacteria were cultured to OD600 ∼0.6 at 37 °C after which they were induced with 0.5 mM isopropyl-b-D-thiogalactoside overnight at 16 °C. Proteins were purified using Ni-NTA beads for 6xHis-tagged proteins or glutathione sepharose beads for GST tagged proteins, respectively. After purification, the 6xHis tag was cleaved from JMJD2A and SGF29 using TEV-protease and the GST tag was cleaved from TAF3 using thrombin. Protein were purified by size-exclusion chromatography using a Superdex 75 column (GE Healthcare). SGF29 was eluted in 25 mM Tris, 50 mM NaCl, 1 mM dithiothreitol at pH 7.5; JMJD2A and TAF3 were eluted in 50 mM Tris at pH 7.5; BPTF and JARID1A were eluted in 50 mM Tris, 20 mM NaCl at pH 7.5. All proteins were made filter sterile and stored at 4 °C until further use.
(§3) Concentrations of histone peptides were measured by ultraviolet spectroscopy at 205 nm, following the previously reported method. All histone peptides were titrated to the same batch of reader proteins. […] Heats of dilution for histone peptides were determined in control experiments, and were subtracted from the titration binding data before curve fitting. […] For each reader–histone system, 5–7 independent ITC experiments were carried out. […]

TAF3 PHD domain = target: T2, TAF3 PHD domain (Homo sapiens, UniProt Q5VWG9); assay: ITC binding to TAF3 PHD domain; conditions: 5–7 independent experiments
T2 sequence (Q5VWG9 857-924): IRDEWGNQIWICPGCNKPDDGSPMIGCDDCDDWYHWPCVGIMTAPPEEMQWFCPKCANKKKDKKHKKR
Description: as §1, §2, §3

[1] = target: T3, SGF29 tandem tudor domain (Homo sapiens, UniProt Q96ES7); assay: ITC binding to SGF29 tandem tudor domain; conditions: ITC (Auto-iTC200), one set of sites; 350–600 μM 10-mer peptide into 25–40 μM protein (eluted in 25 mM Tris, 50 mM NaCl, 1 mM dithiothreitol, pH 7.5); 5–7 independent experiments; stoichiometry n=0.95–1.05
T3 construct: 6xHis (cleaved yes); made in house; host or cells: Escherichia coli Rosetta BL21 DE3 pLysS
T3 sequence (Q96ES7 115-293): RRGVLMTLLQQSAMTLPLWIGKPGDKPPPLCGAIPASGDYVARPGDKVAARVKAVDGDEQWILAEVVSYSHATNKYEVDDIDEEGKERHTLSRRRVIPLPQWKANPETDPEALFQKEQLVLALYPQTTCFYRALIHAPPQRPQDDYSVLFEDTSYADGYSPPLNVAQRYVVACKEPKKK
Description: as §1
(§4) Reader proteins were prepared and purified following the previously reported procedure. Briefly, the reader domains of BPTF, JMJD2A, JARID1A, TAF3 and SGF29 were expressed in Escherichia coli Rosetta BL21 DE3 pLysS hosts, using Terrific Broth medium. The bacteria were cultured to OD600 ∼0.6 at 37 °C after which they were induced with 0.5 mM isopropyl-b-D-thiogalactoside overnight at 16 °C. […]
as §3

JMJD2A tudor domain = target: T4, JMJD2A tudor domain (Homo sapiens, UniProt O75164); assay: ITC binding to JMJD2A tudor domain; conditions: 5–7 independent experiments
T4 construct: the PHD zinc fingers of JARID1A, BPTF, TAF3 and the tudor domains of the Royal family of SGF29 and JMJD2A; 6xHis (cleaved yes); made in house; host or cells: Escherichia coli Rosetta BL21 DE3 pLysS
T4 sequence (O75164 897-1011 limits assumed): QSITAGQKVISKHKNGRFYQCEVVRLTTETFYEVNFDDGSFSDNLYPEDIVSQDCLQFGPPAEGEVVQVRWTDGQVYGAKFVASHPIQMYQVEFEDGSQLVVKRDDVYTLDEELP
Description: as §1, §4, §3

BPTF PHD zinc finger = target: T5, BPTF PHD zinc finger (Homo sapiens, UniProt Q12830); assay: ITC binding to BPTF PHD zinc finger; conditions: ITC (Auto-iTC200), one set of sites; 350–600 μM 10-mer peptide into 25–40 μM protein (eluted in 50 mM Tris, 20 mM NaCl, pH 7.5); 5–7 independent experiments; stoichiometry n=0.95–1.05
T5 construct: the PHD zinc fingers of JARID1A, BPTF, TAF3 and the tudor domains of the Royal family of SGF29 and JMJD2A; made in house; host or cells: Escherichia coli Rosetta BL21 DE3 pLysS
Description: as §1, §4, §3

[2] = ITC (Auto-iTC200), one set of sites, 350–600 μM 10-mer peptide into 25–40 μM protein (eluted in 50 mM Tris, 20 mM NaCl, pH 7.5), 5–7 independent experiments, stoichiometry n=0.95–1.05, read-out: Kd
[3] = ITC (Auto-iTC200), one set of sites, 350–600 μM 10-mer peptide into 25–40 μM protein (eluted in 50 mM Tris, pH 7.5), stoichiometry n=0.95–1.05, read-out: Kd

Kd (JARID1A PHD3 domain; [2]) [nM] | Kd [1] [nM] | Kd (JMJD2A tudor domain; ITC, 3 mM H3C4me3 into 200 μM JMJD2A) [µM] | Kd (TAF3 PHD domain; [3]) [nM] | Kd (BPTF PHD zinc finger) [nM] | Kd (JMJD2A tudor domain; ITC (Auto-iTC200), one set of sites, 350–600 μM 10-mer peptide into 25–40 μM protein (eluted in 50 mM Tris, pH 7.5), stoichiometry n=0.95–1.05) [µM] | SMILES | Kd (JARID1A PHD3 domain) [nM] | Kd (TAF3 PHD domain; ITC, 3 mM H3G4 into 200 μM TAF3) [nM]
– | – | – | – | – | – | C[C@H](N)C(=O)N[C@@H](CCCNC(=N)N)C(=O)N[C@H](C(=O)NCC(=O)N[C@@H](CCC(N)=O)C(=O)N[C@H](C(=O)N[C@@H](C)C(=O)N[C@@H](CCCNC(=N)N)C(=O)N[C@@H](CCCCN)C(=O)N[C@@H](CO)C(=O)O)[C@@H](C)O)[C@@H](C)O [H3G4] | 88000 | 36000
340 | 1400 | 16 | 790 | 760 | – | C[C@H](N)C(=O)N[C@@H](CCCNC(=N)N)C(=O)N[C@H](C(=O)N[C@@H](CCCCC(C)(C)C)C(=O)N[C@@H](CCC(N)=O)C(=O)N[C@H](C(=O)N[C@@H](C)C(=O)N[C@@H](CCCNC(=N)N)C(=O)N[C@@H](CCCCN)C(=O)N[C@@H](CO)C(=O)O)[C@@H](C)O)[C@@H](C)O [H3C4me3] | – | –
94 | 1700 | – | 24 | 490 | 0.94 | C[C@H](N)C(=O)N[C@@H](CCCNC(=N)N)C(=O)N[C@H](C(=O)N[C@@H](CCCC[N+](C)(C)C)C(=O)N[C@@H](CCC(N)=O)C(=O)N[C@H](C(=O)N[C@@H](C)C(=O)N[C@@H](CCCNC(=N)N)C(=O)N[C@@H](CCCCN)C(=O)N[C@@H](CO)C(=O)O)[C@@H](C)O)[C@@H](C)O [H3K4me3] | – | –
